One experiment deals with T1, human PPARγ (Homo sapiens, UniProt P37231).
T1 construct: expressed in transfected cells; host or cells: Cos-7 cells (ATCC, CRL-1651)
T1 sequence (P37231 238-503 limits assumed): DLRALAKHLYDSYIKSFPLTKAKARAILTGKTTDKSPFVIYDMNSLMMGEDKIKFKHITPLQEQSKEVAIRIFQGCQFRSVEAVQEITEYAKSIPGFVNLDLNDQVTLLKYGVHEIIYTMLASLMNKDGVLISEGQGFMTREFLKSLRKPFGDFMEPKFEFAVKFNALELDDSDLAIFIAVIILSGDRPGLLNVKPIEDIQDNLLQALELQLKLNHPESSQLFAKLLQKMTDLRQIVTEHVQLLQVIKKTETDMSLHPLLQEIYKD
The experiment in a line: Reporter gene transactivation, hPPAR-GAL4 gamma. It is filed as cell-based. To be noted: transfected Cos-7 cells, Gal-4 luciferase reporter, 24 hours treatment. A general note: Reporter assays use an easily measured gene product as a stand-in for the process of interest.

Experiment [1] has as its system insulin-resistant male rat (Ico: ZUCKER-fa/fa). In words: Normalization of metabolic parameters (cholesterol, plasma triglycerides) in insulin-resistant rat. It is filed as in vivo. To be noted: oral route, once per day for four days, Zucker fa/fa rat unfed 16-18 hours; for change in vivo at 2.5 mg/kg / change in vivo at 10 mg/kg: 96 h. How it is done: Normalization of metabolic parameters (cholesterol, plasma triglycerides) in an insulin-resistant male rat (Ico: ZUCKER-fa/fa), unfed for 16-18 hours, after treatment by oral route, once per day for four days, with the compounds to be evaluated or their administration vehicle.
These metabolic parameters are measured by spectrophotometry at the beginning and the end of each animal's treatment.

A further experiment deals with T2, human PPARδ (Homo sapiens, UniProt Q03181).
T2 construct: expressed in transfected cells; host or cells: Cos-7 cells (ATCC, CRL-1651)
T2 sequence (Q03181 211-439 limits assumed): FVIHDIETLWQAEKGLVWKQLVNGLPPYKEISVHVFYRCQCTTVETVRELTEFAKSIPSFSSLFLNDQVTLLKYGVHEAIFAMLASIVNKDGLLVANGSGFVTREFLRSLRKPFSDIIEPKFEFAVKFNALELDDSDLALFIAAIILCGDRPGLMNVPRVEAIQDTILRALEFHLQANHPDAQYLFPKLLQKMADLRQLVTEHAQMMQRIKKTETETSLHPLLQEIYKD
In words: Reporter gene transactivation, hPPAR-GAL4 delta. It is filed as cell-based. The following applies: transfected Cos-7 cells, Gal-4 luciferase reporter, 24 hours treatment.

Another experiment concerns the target T3, human PPARα (Homo sapiens, UniProt Q07869).
T3 construct: expressed in transfected cells; host or cells: Cos-7 cells (ATCC, CRL-1651)
T3 sequence (Q07869 239-466 limits assumed): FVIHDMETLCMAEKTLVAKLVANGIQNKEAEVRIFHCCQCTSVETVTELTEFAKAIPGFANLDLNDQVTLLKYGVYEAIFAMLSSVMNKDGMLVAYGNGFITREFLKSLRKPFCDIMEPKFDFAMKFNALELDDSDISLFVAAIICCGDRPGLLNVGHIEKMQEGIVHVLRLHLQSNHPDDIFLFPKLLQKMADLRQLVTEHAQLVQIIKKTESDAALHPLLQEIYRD
The experiment in a line: Reporter gene transactivation, hPPAR-GAL4 alpha. Type of experiment: cell-based. The following applies: transfected Cos-7 cells, Gal-4 luciferase reporter, 24 hours treatment.

Setting [2] is: at 10 mg/kg, read-out: Plasma cholesterol.
The mark [3] stands for this setting: at 10 mg/kg, read-out: Plasma triglycerides.

SMILES strings stand for the structures. Where two headings read alike, the source gives them in different places. Some results are limits rather than exact numbers.

What is called EC50 is the concentration that produces a half-maximal response. On to `Cn1nc(NCCCCc2cccc(SC(C)(C)C(=O)O)c2)c(=O)n(CCCC(F)(F)F)c1=O` [Example 96, 2-Methyl-2-(3-{4-[2-methyl-3,5-dioxo-4-(4,4,4-trifluoro-butyl)-2,3,4,5-tetrahydro-[1,2,4]triazin-6-ylamino]-butyl}-phenylsulfanyl)-propionic Acid], for which the EC50 at human PPARγ was about 10000 nM; at human PPARδ it was over 10000 nM; on human PPARα, 30 to 100 nM. The change in vivo at 2.5 mg/kg in experiment [1] (at 2.5 mg/kg, read-out: Plasma cholesterol) is -28%; in experiment [1] (at 2.5 mg/kg, read-out: Plasma triglycerides), -26%. Also, the change in vivo at 10 mg/kg is -21% in experiment [1] (setting [2]) and -60% in experiment [1] (setting [3]).
Regarding `CCOC(=O)C(C)(C)Oc1ccc(OCCNc2nn(CCCC(F)(F)F)c(=O)n(CCCC(F)(F)F)c2=O)cc1` [Example 41, Ethyl 2-(4-{2-[3,5-dioxo-2,4-bis-(4,4,4-trifluoro-butyl)-2,3,4,5-tetrahydro-[1,2,4]triazin-6-ylamino]-ethoxy}-phenoxy)-2-methyl-propionate], the values for the 50% effective concentration (EC50) on human PPARγ, on human PPARδ and on human PPARα were about 10000 nM, 1000 to 3000 nM and about 100 nM, respectively. In addition, the change in vivo at 10 mg/kg in experiment [1] (setting [2]) is -28%. Also, in experiment [1] (at 10 mg/kg), the Plasma triglycerides entry is “inactive at 10”.
On to `CCCCCCCn1nc(NCCCCc2cccc(OC(C)(C)C(=O)O)c2)c(=O)n(CCCC(F)(F)F)c1=O` [Example 84, 2-(3-{4-[2-Heptyl-3,5-dioxo-4-(4,4,4-trifluoro-butyl)-2,3,4,5-tetrahydro-[1,2,4]triazin-6-ylamino]-butyl}-phenoxy)-2-methyl-propionic Acid], for which the EC50 on human PPARγ was about 300 nM; at human PPARδ, 1000 to 3000 nM; on human PPARα, 3 to 10 nM. The change in vivo at 10 mg/kg is -13% in experiment [1] (setting [2]) and -7% in experiment [1] (setting [3]). The Plasma cholesterol entry in experiment [1] (at 2.5 mg/kg) is “inactive at 2.5”. In addition, the Plasma triglycerides entry in experiment [1] (at 2.5 mg/kg) was “inactive at 2.5”.

For the origin of these results see patent US7713971B2, “1,2,4-triazine derivatives, preparation and use thereof in human therapy” (Pierre Fabre Medicament, priority 2005, dated 2010).
